# In paper PMC5218480 (PLoS ONE, 2017):
# Test system: MV-4-11 cells
# Test: Gene expression microarray analysis (Affymetrix PrimeView) and GSEA
# Type: cell-based, human
# Set-up: RFU PODN (11730768_x_at) / Fold change /veh PODN (11730768_x_at) / RFU LINC00158 (11744669_a_at) / Fold change /veh LINC00158 (11744669_a_at) / RFU DUSP10 (11751237_a_at) / Fold change /veh DUSP10 (11751237_a_at) / RFU ID3 (11757404_x_at) / Fold change /veh ID3 (11757404_x_at) / RFU PLEKHG5 (11737974_s_at) / Fold change /veh PLEKHG5 (11737974_s_at) / RFU LRRC4B (11730491_at) / Fold change /veh LRRC4B (11730491_at) / RFU GIMAP4 (11747438_a_at) / Fold change /veh GIMAP4 (11747438_a_at) / RFU KRT8 (11758183_x_at) / Fold change /veh KRT8 (11758183_x_at) / RFU CNN1 (11734310_a_at) / Fold change /veh CNN1 (11734310_a_at) / RFU VPS37D (11726825_at) / Fold change /veh VPS37D (11726825_at) / RFU C10orf10 (11716522_x_at) / Fold change /veh C10orf10 (11716522_x_at) / RFU KIR2DL2 /// KIR2DL4 /// KIR2DL5A /// KIR2DL5B /// KIR2DS1 /// KIR2DS2 /// KIR2DS3 /// KIR2DS4 /// KIR3DL3 /// KIR3DL3 /// KIR3DS1 (11738374_at) / Fold change /veh KIR2DL2 /// KIR2DL4 /// KIR2DL5A /// KIR2DL5B /// KIR2DS1 /// KIR2DS2 /// KIR2DS3 /// KIR2DS4 /// KIR3DL3 /// KIR3DL3 /// KIR3DS1 (11738374_at) / RFU C1QL1 (11718748_at) / Fold change /veh C1QL1 (11718748_at) / RFU TMPRSS4 (11747572_a_at) / Fold change /veh TMPRSS4 (11747572_a_at) / RFU HAMP (11756126_x_at) / Fold change /veh HAMP (11756126_x_at) / RFU RNFT2 (11725882_a_at) / Fold change /veh RNFT2 (11725882_a_at) / RFU NR4A2 (11747474_a_at) / Fold change /veh NR4A2 (11747474_a_at) / RFU ABCC12 (11746883_a_at) / Fold change /veh ABCC12 (11746883_a_at) / RFU TMEM136 (11760407_x_at) / Fold change /veh TMEM136 (11760407_x_at) / RFU CLDN22 /// WWC2 (11732394_at) / Fold change /veh CLDN22 /// WWC2 (11732394_at) / RFU HLA-DPB1 (11760878_x_at) / Fold change /veh HLA-DPB1 (11760878_x_at) / RFU SPINT1 (11716480_a_at) / Fold change /veh SPINT1 (11716480_a_at) / RFU GAP43 (11754022_s_at) / Fold change /veh GAP43 (11754022_s_at) / RFU A4GNT (11735810_at) / Fold change /veh A4GNT (11735810_at) / RFU PRB3 (11715151_x_at) / Fold change /veh PRB3 (11715151_x_at) / RFU TUBB4B (11761932_at) / Fold change /veh TUBB4B (11761932_at) / RFU CAPN14 (11732068_a_at) / Fold change /veh CAPN14 (11732068_a_at) / RFU TMCC2 (11721928_a_at) / Fold change /veh TMCC2 (11721928_a_at) / RFU IRGQ (11745062_a_at) / Fold change /veh IRGQ (11745062_a_at) / RFU FAM174B (11720279_a_at) / Fold change /veh FAM174B (11720279_a_at) / RFU TMPRSS4 (11748680_a_at) / Fold change /veh TMPRSS4 (11748680_a_at) / RFU FAM212B (11763350_a_at) / Fold change /veh FAM212B (11763350_a_at) / RFU PLEKHG5 (11743358_a_at) / Fold change /veh PLEKHG5 (11743358_a_at) / RFU ZSCAN30 (11745921_a_at) / Fold change /veh ZSCAN30 (11745921_a_at) / RFU CMKLR1 (11741424_a_at) / Fold change /veh CMKLR1 (11741424_a_at) / RFU LOC101060620 /// MAPK8IP1 (11723275_at) / Fold change /veh LOC101060620 /// MAPK8IP1 (11723275_at) / RFU SPTSSB (11747773_x_at) / Fold change /veh SPTSSB (11747773_x_at) / RFU PRSS12 (11739890_at) / Fold change /veh PRSS12 (11739890_at) / RFU BIN1 (11741810_x_at) / Fold change /veh BIN1 (11741810_x_at) / RFU WNT11 (11732464_a_at) / Fold change /veh WNT11 (11732464_a_at) / RFU C10orf10 (11716521_a_at) / Fold change /veh C10orf10 (11716521_a_at) / RFU C5orf56 (11738089_at) / Fold change /veh C5orf56 (11738089_at) / RFU CYB561 (11721691_x_at) / Fold change /veh CYB561 (11721691_x_at) / RFU ANKRD19P (11752326_a_at) / Fold change /veh ANKRD19P (11752326_a_at) / RFU OR2T12 /// OR2T33 /// OR2T8 (11738714_s_at) / Fold change /veh OR2T12 /// OR2T33 /// OR2T8 (11738714_s_at) / RFU VCAN (11748164_a_at) / Fold change /veh VCAN (11748164_a_at) / RFU JSRP1 (11732532_at) / Fold change /veh JSRP1 (11732532_at) / RFU KRTAP10-11 (11738290_x_at) / Fold change /veh KRTAP10-11 (11738290_x_at) / RFU MYO3A (11730013_a_at) / Fold change /veh MYO3A (11730013_a_at) / RFU EBF3 (11725865_a_at) / Fold change /veh EBF3 (11725865_a_at) / RFU CAMK2N1 (11719241_x_at) / Fold change /veh CAMK2N1 (11719241_x_at) / RFU C5orf56 (11738088_a_at) / Fold change /veh C5orf56 (11738088_a_at) / RFU OLFML3 (11715873_a_at) / Fold change /veh OLFML3 (11715873_a_at) / RFU LOC100653217 /// NTM (11731650_a_at) / Fold change /veh LOC100653217 /// NTM (11731650_a_at) / RFU MAPK11 (11762145_a_at) / Fold change /veh MAPK11 (11762145_a_at) / RFU FIZ1 (11724087_x_at) / Fold change /veh FIZ1 (11724087_x_at) / RFU OASL (11726364_x_at) / Fold change /veh OASL (11726364_x_at) / RFU SOX15 (11748057_x_at) / Fold change /veh SOX15 (11748057_x_at) / RFU CD79A (11719716_a_at) / Fold change /veh CD79A (11719716_a_at) / RFU HIST1H1D (11736915_at) / Fold change /veh HIST1H1D (11736915_at) / RFU CASKIN2 (11723855_a_at) / Fold change /veh CASKIN2 (11723855_a_at) / RFU LOC730098 (11760151_x_at) / Fold change /veh LOC730098 (11760151_x_at) / RFU OR4N2 (11742367_at) / Fold change /veh OR4N2 (11742367_at) / RFU PRRT2 (11749266_a_at) / Fold change /veh PRRT2 (11749266_a_at) / RFU SNX32 (11753110_a_at) / Fold change /veh SNX32 (11753110_a_at) / RFU CDHR5 (11726645_a_at) / Fold change /veh CDHR5 (11726645_a_at) / RFU RCAN1 (11760418_a_at) / Fold change /veh RCAN1 (11760418_a_at) / RFU FAM167A (11723789_a_at) / Fold change /veh FAM167A (11723789_a_at) / RFU FAM26E (11764081_at) / Fold change /veh FAM26E (11764081_at) / RFU ISYNA1 (11749810_s_at) / Fold change /veh ISYNA1 (11749810_s_at) / RFU ACY1 (11761880_at) / Fold change /veh ACY1 (11761880_at) / RFU 11764098_at / Fold change /veh 11764098_at / RFU SAMD14 (11745864_x_at) / Fold change /veh SAMD14 (11745864_x_at) / RFU NPB (11741838_a_at) / Fold change /veh NPB (11741838_a_at) / RFU TMPRSS6 (11731388_a_at) / Fold change /veh TMPRSS6 (11731388_a_at) / RFU KRTAP10-2 (11738614_at) / Fold change /veh KRTAP10-2 (11738614_at) / RFU ARHGAP8 /// PRR5-ARHGAP8 (11727945_x_at) / Fold change /veh ARHGAP8 /// PRR5-ARHGAP8 (11727945_x_at) / RFU KRTAP5-7 /// NADSYN1 (11734609_at) / Fold change /veh KRTAP5-7 /// NADSYN1 (11734609_at) / RFU RASL12 (11751679_a_at) / Fold change /veh RASL12 (11751679_a_at) / RFU CDKN2B (11736163_a_at) / Fold change /veh CDKN2B (11736163_a_at) / RFU PRF1 (11729649_at) / Fold change /veh PRF1 (11729649_at) / RFU, ZNF638 /// ZNF638-IT1 / Fold change vs veh, ZNF638 /// ZNF638-IT1 / RFU, PANK3 / Fold change vs veh, PANK3 / RFU, SH3YL1 / Fold change vs veh, SH3YL1 / RFU, ZEB2 / Fold change vs veh, ZEB2 / RFU, NRIP1 / Fold change vs veh, NRIP1 / RFU, PTTG1IP / Fold change vs veh, PTTG1IP / RFU, CAPN2 / Fold change vs veh, CAPN2 / RFU, MED14 / Fold change vs veh, MED14 / RFU, SNORA58 / Fold change vs veh, SNORA58 / RFU, C1orf63 / Fold change vs veh, C1orf63 / RFU, LRRFIP1 / Fold change vs veh, LRRFIP1 / RFU, NDUFAF7 / Fold change vs veh, NDUFAF7 / RFU, SLC12A2 / Fold change vs veh, SLC12A2 / RFU, IBTK / Fold change vs veh, IBTK / RFU, ESF1 / Fold change vs veh, ESF1 / Fold change vs veh, TMEM50B / RFU, TAOK1 / Fold change vs veh, TAOK1 / RFU, ACBD3 / Fold change vs veh, ACBD3 / RFU, TMA16 / Fold change vs veh, TMA16 / RFU, RWDD3 / Fold change vs veh, RWDD3 / RFU, BCAT1 / Fold change vs veh, BCAT1 / RFU, EDEM3 / Fold change vs veh, EDEM3 / RFU, TMEM33 / Fold change vs veh, TMEM33 / RFU, WDR75 / Fold change vs veh, WDR75 / RFU, AHCTF1 / Fold change vs veh, AHCTF1 / RFU, TFRC / Fold change vs veh, TFRC / RFU, ZDHHC17 / Fold change vs veh, ZDHHC17 / RFU, NOM1 / Fold change vs veh, NOM1 / RFU, ARL8B / Fold change vs veh, ARL8B / RFU, ZBTB11 / Fold change vs veh, ZBTB11 / RFU, TAMM41 / Fold change vs veh, TAMM41 / RFU, KIAA1704 /// LOC100996395 / Fold change vs veh, KIAA1704 /// LOC100996395 / RFU, ING1 / Fold change vs veh, ING1 / RFU, TRMT61B / Fold change vs veh, TRMT61B / RFU, FUBP3 / Fold change vs veh, FUBP3 / RFU, TP53 / Fold change vs veh, TP53 / RFU, TNKS2 / Fold change vs veh, TNKS2 / RFU, ZFP14 / Fold change vs veh, ZFP14 / RFU, ACTR2 / Fold change vs veh, ACTR2 / RFU, PPP3R1 / Fold change vs veh, PPP3R1 / RFU, PIK3R1 / Fold change vs veh, PIK3R1 / RFU, HNRNPA1 / Fold change vs veh, HNRNPA1 / RFU, RNF170 / Fold change vs veh, RNF170 / RFU, ZNF28 / Fold change vs veh, ZNF28 / RFU, RNGTT / Fold change vs veh, RNGTT / RFU, OGT / Fold change vs veh, OGT / RFU, BRD1 / Fold change vs veh, BRD1 / RFU, MARS / Fold change vs veh, MARS / RFU, ZNF655 / Fold change vs veh, ZNF655 / RFU, FAHD1 / Fold change vs veh, FAHD1 / RFU, BDP1 / Fold change vs veh, BDP1 / RFU, LRRCC1 / Fold change vs veh, LRRCC1 / RFU, ARID1A / Fold change vs veh, ARID1A / RFU, ZNF146 / Fold change vs veh, ZNF146 / RFU, ZNF330 / Fold change vs veh, ZNF330 / RFU, GPN3 / Fold change vs veh, GPN3 / RFU, C9orf123 / Fold change vs veh, C9orf123 / RFU, N4BP2L2 / Fold change vs veh, N4BP2L2 / RFU, ARFIP1 / Fold change vs veh, ARFIP1 / RFU, FAM179B / Fold change vs veh, FAM179B / RFU, BCL10 / Fold change vs veh, BCL10 / RFU, UHRF1BP1L / Fold change vs veh, UHRF1BP1L / RFU, BET1 / Fold change vs veh, BET1 / RFU, CNOT2 / Fold change vs veh, CNOT2 / RFU, ZNF268 / Fold change vs veh, ZNF268 / Fold change vs veh, ZNF507 / RFU, DGCR2 / Fold change vs veh, DGCR2 / RFU, WDSUB1 / Fold change vs veh, WDSUB1 / Fold change vs veh, HSP90B1 /// MIR3652 / RFU, ADSS / Fold change vs veh, ADSS / RFU, GK / Fold change vs veh, GK / RFU, ZNF148 / Fold change vs veh, ZNF148 / RFU, TAF9 / Fold change vs veh, TAF9 / RFU, SLC1A5 / Fold change vs veh, SLC1A5 / RFU, SLMO2 / Fold change vs veh, SLMO2 / RFU, ABCC4 / Fold change vs veh, ABCC4 / RFU, LOC101060439 /// RAP1B / Fold change vs veh, LOC101060439 /// RAP1B / RFU, RFX7 / Fold change vs veh, RFX7 / RFU, GTPBP10 / Fold change vs veh, GTPBP10 / RFU, CNEP1R1 / Fold change vs veh, CNEP1R1 / RFU, BIVM-ERCC5 /// ERCC5 / Fold change vs veh, BIVM-ERCC5 /// ERCC5 / RFU, ILF3 / Fold change vs veh, ILF3 / RFU 11762660_at / Fold change /veh 11762660_at / RFU VCAN (11757783_s_at) / Fold change /veh VCAN (11757783_s_at) / RFU DDX43 (11728927_at) / Fold change /veh DDX43 (11728927_at) / RFU KRT8 (11758188_x_at) / Fold change /veh KRT8 (11758188_x_at) / RFU NKD1 (11759106_at) / Fold change /veh NKD1 (11759106_at) / RFU SRD5A1 (11742802_a_at) / Fold change /veh SRD5A1 (11742802_a_at) / RFU TPSAB1 /// TPSB2 (11721975_s_at) / Fold change /veh TPSAB1 /// TPSB2 (11721975_s_at) / RFU GSTM3 (11746129_a_at) / Fold change /veh GSTM3 (11746129_a_at) / RFU IL23R (11737362_x_at) / Fold change /veh IL23R (11737362_x_at) / RFU TMEM51 (11727254_a_at) / Fold change /veh TMEM51 (11727254_a_at) / RFU PIWIL2 (11732686_x_at) / Fold change /veh PIWIL2 (11732686_x_at) / RFU ORM1 (11744905_x_at) / Fold change /veh ORM1 (11744905_x_at) / RFU CCDC152 (11743942_at) / Fold change /veh CCDC152 (11743942_at) / RFU ECM1 (11717891_a_at) / Fold change /veh ECM1 (11717891_a_at) / RFU IL23R (11748794_a_at) / Fold change /veh IL23R (11748794_a_at) / RFU TNFAIP8L3 (11732012_x_at) / Fold change /veh TNFAIP8L3 (11732012_x_at) / RFU MBOAT4 (11741988_at) / Fold change /veh MBOAT4 (11741988_at) / RFU 11764193_at / Fold change /veh 11764193_at / RFU TMEM53 (11763286_at) / Fold change /veh TMEM53 (11763286_at) / RFU MAGEB2 (11727129_at) / Fold change /veh MAGEB2 (11727129_at) / RFU TMEM200A (11744735_a_at) / Fold change /veh TMEM200A (11744735_a_at) / RFU CCDC152 (11751479_a_at) / Fold change /veh CCDC152 (11751479_a_at) / RFU FAM211A (11726209_a_at) / Fold change /veh FAM211A (11726209_a_at) / RFU RGS16 (11746705_a_at) / Fold change /veh RGS16 (11746705_a_at) / RFU VCAN (11755009_s_at) / Fold change /veh VCAN (11755009_s_at) / RFU RHOB (11743442_s_at) / Fold change /veh RHOB (11743442_s_at) / RFU RGS16 (11720943_a_at) / Fold change /veh RGS16 (11720943_a_at) / RFU RGS16 (11720944_at) / Fold change /veh RGS16 (11720944_at) / RFU, VPS4B / Fold change vs veh, VPS4B / RFU, CREB1 / Fold change vs veh, CREB1 / RFU, DNAJC13 / Fold change vs veh, DNAJC13 / RFU, GNAQ / Fold change vs veh, GNAQ / RFU, CDK5R1 / Fold change vs veh, CDK5R1 / RFU, ZRANB3 / Fold change vs veh, ZRANB3 / RFU, CUL4A / Fold change vs veh, CUL4A / RFU, CCNY / Fold change vs veh, CCNY / RFU, UFL1 / Fold change vs veh, UFL1 / RFU, COG3 / Fold change vs veh, COG3 / RFU, DIAPH2 / Fold change vs veh, DIAPH2 / RFU, SKA2 / Fold change vs veh, SKA2 / RFU, AFF3 / Fold change vs veh, AFF3 / RFU, LMF1 / Fold change vs veh, LMF1 / RFU, IPO11 / Fold change vs veh, IPO11 / RFU, DFFB / Fold change vs veh, DFFB / RFU, FOXP1 / Fold change vs veh, FOXP1 / RFU, CARD8 / Fold change vs veh, CARD8 / RFU, STRN3 / Fold change vs veh, STRN3 / RFU, ADK / Fold change vs veh, ADK / RFU, RASSF2 / Fold change vs veh, RASSF2 / RFU, WIPF1 / Fold change vs veh, WIPF1 / RFU, LARP1B / Fold change vs veh, LARP1B / RFU, RASA1 / Fold change vs veh, RASA1 / RFU, RB1 / Fold change vs veh, RB1 / RFU, PPFIA1 / Fold change vs veh, PPFIA1 / RFU, MAT2A / Fold change vs veh, MAT2A / RFU, CCT5 / Fold change vs veh, CCT5 / RFU, WDR92 / Fold change vs veh, WDR92 / RFU, CUX1 / Fold change vs veh, CUX1 / RFU, TTC7A / Fold change vs veh, TTC7A / RFU, TMEM135 / Fold change vs veh, TMEM135 / RFU, DEPTOR / Fold change vs veh, DEPTOR / RFU, CPM / Fold change vs veh, CPM / RFU, DNAJB6 / Fold change vs veh, DNAJB6 / RFU, CACNA2D3 / Fold change vs veh, CACNA2D3 / RFU, DTX4 / Fold change vs veh, DTX4 / RFU, TFCP2 / Fold change vs veh, TFCP2 / RFU, GMCL1 /// GMCL1P1 / Fold change vs veh, GMCL1 /// GMCL1P1 / RFU, AEBP2 / Fold change vs veh, AEBP2 / RFU, SNHG1 /// SNORD22 /// SNORD25 /// SNORD26 /// SNORD27 /// SNORD28 /// SNORD29 /// SNORD31 / Fold change vs veh, SNHG1 /// SNORD22 /// SNORD25 /// SNORD26 /// SNORD27 /// SNORD28 /// SNORD29 /// SNORD31 / Fold change (Aza/veh), C12orf56 (ProbeSet 11735607_a_at) / Fold change (ACY-1035/veh), C12orf56 (ProbeSet 11735607_a_at) / Fold change (Aza/veh), FGFR1OP (ProbeSet 11751329_s_at) / Fold change (ACY-1035/veh), FGFR1OP (ProbeSet 11751329_s_at) / Fold change (Aza/veh), VPS36 (ProbeSet 11739960_a_at) / Fold change (ACY-1035/veh), VPS36 (ProbeSet 11739960_a_at) / RFU SYPL1 (11715823_x_at) / Fold change /veh SYPL1 (11715823_x_at) / RFU IGFBP7 (11715501_s_at) / Fold change /veh IGFBP7 (11715501_s_at) / RFU REEP3 (11722064_at) / Fold change /veh REEP3 (11722064_at) / RFU IGLL1 (11728026_x_at) / Fold change /veh IGLL1 (11728026_x_at): dose or concentration left out as unconfirmed
# Settings: ProbeSet 11747937_a_at; LIST D
smiles,measurement,value
Nc1ncn([C@@H]2O[C@H](CO)[C@@H](O)[C@H]2O)c(=O)n1 [azacitidine],"Fold change vs veh, DNAJB6",0.52
